Test results as given in ChEMBL document CHEMBL1132524, “Synthesis and evaluation of analogs of Efavirenz (SUSTIVA) as HIV-1 reverse transcriptase inhibitors” (Bioorg Med Chem Lett, 1999).
pIC50: −log10 of the molar value.

Assays:
[1] = biological target: Human immunodeficiency virus type 1 reverse transcriptase (Human immunodeficiency virus 1, UniProt Q72547); test: Inhibitory activity against HIV-1 reverse transcriptase enzyme
[2] = system: Human immunodeficiency virus 1

SMILES	pIC50 [1]	IC90 [2]
CN(C)c1ccc2c(c1)C(C#CC1CC1)(C(F)(F)F)OC(=O)N2 (stereo not given)	6.09	8.33 nM
O=C1Nc2cc(F)c(F)c(F)c2C(C#CC2CC2)(C(F)(F)F)O1 (stereo not given)	6.35	19.6 nM
Cc1ccc2c(c1)C(C#CC1CC1)(C(F)(F)F)OC(=O)N2 (stereo not given)	6.88	7.11 nM
O=C1Nc2ccc(-c3ccccc3)cc2C(C#CC2CC2)(C(F)(F)F)O1 (stereo not given)	< 5.70	249 nM
O=C1Nc2c(cc(F)c(F)c2F)C(C#CC2CC2)(C(F)(F)F)O1 (stereo not given)	< 5.70	418 nM
O=C1Nc2ccc(F)cc2C(C#CC2CC2)(C(F)(F)F)O1 (stereo not given)	6.72	7.35 nM
O=C1Nc2cc3ccccc3cc2C(C#CC2CC2)(C(F)(F)F)O1 (stereo not given)	5.72	26.9 nM
O=C1Nc2c(F)cc(Cl)cc2C(C#CC2CC2)(C(F)(F)F)O1 (stereo not given)	–	7.19 nM
O=C1Nc2c(F)ccc(F)c2C(C#CC2CC2)(C(F)(F)F)O1 (stereo not given)	6.10	18 nM
COc1ccc2c(c1)C(C#CC1CC1)(C(F)(F)F)OC(=O)N2 (stereo not given)	6.88	2 nM
O=C1Nc2ccc(OC(F)(F)F)cc2C(C#CC2CC2)(C(F)(F)F)O1 (stereo not given)	5.90	18.9 nM
O=C1Nc2c(F)cc(F)c(F)c2C(C#CC2CC2)(C(F)(F)F)O1 (stereo not given)	6.10	14 nM
O=C1Nc2c(Cl)cc(Cl)cc2C(C#CC2CC2)(C(F)(F)F)O1 (stereo not given)	< 5.70	28.6 nM
CC(C)c1ccc2c(c1)C(C#CC1CC1)(C(F)(F)F)OC(=O)N2 (stereo not given)	5.71	27.8 nM
O=C1Nc2ccc(F)c(F)c2C(C#CC2CC2)(C(F)(F)F)O1 (stereo not given)	7.08	–
O=C1Nc2ccccc2C(C#CC2CC2)(C(F)(F)F)O1 (stereo not given)	6.32	10.3 nM
